Test results reported in patent publication US20240051942A1, “SOLID FORM OF COMPOUND” (INXMED (NANJING) CO., LTD., priority 2020, published 2024).
In brackets after ≈: the same amount, converted by molar mass. Structures can show the parent of a compound that is named as a salt.

Tests used:
Type in all cases: physicochemical
[1] = Solubility test (shaker 25° C., 24 hours, filtrate by HPLC); details: for solubility at 24 h: 25 °C, thermodynamic from solid
Method: (§1) A certain amount of crystalline form A of free base of the compound of formula (I), crystalline form I of the tartrate salt, and crystalline form III of the tartrate salt were weighed and placed in a 5 mL sample bottle. Deionized water, pH 2.0 glycine-hydrochloric acid buffer solution, pH 4.5 Na2HPO4-citric acid buffer solution, and pH 6.8 Na2HPO4-citric acid buffer solution were added respectively (each 2 mL). The mixture was placed on a shaker at 25° C., shaken for 24 hours, and then filtered. The filtrate was tested for solubility by HPLC; and the solid was detected by XRPD to determine whether the crystalline form was transformed.
The chromatographic conditions were as follows: • Chromatographic column: Unitary C18 (5 μm, 100 A, 4.6×250 mm) • Mobile phase: Phase A was ammonium acetate with pH of 6.2, and phase B was acetonitrile, A: B=10:90. • Detection wavelength: 230 nm, Column temperature: 35° C. • Injection volume: 20 μL

[2] = Water adsorption and desorption test (DVS); details: for Moisture absorption: 25° C.
Method: • 4. Gravimetric Dynamic Vapor Sorption Isotherm Plot (DVS)
Dynamic water adsorption instrument (DVS) was used to investigate the adsorption and desorption test of crystalline forms I and III of the tartrate salt at 25° C. in the range of 0-95% relative humidity, so as to determine hygroscopicity of various crystalline forms (For details, see FIGS. 4d and 5d).

[3] = XRPD of the solid after the solubility test (crystal transformation)
Method: as §1

[4] = Stability under pressure condition (powder tablet press, XRPD); details: mechanical pressures of 2, 4, 6, 8, and 10 N, 5 minutes
Method: An appropriate amount of powders of crystalline form A of the free base, crystalline form I of the tartrate salt, and crystalline form III of the tartrate salt were weighed and evenly spread on the bottom of the mold of a powder tablet press. To simulate the pressure conditions in a formulation process, mechanical pressures of 2, 4, 6, 8, and 10 N were applied respectively. The pressure was kept stable for 5 minutes, and then samples were taken for XRPD to investigate the stability of the crystalline form under pressure conditions. For details of patterns, see FIGS. 24-26.

[5] = Stability under grinding condition (ball mill, XRPD); details: automatic ball mill, grinding 5, 10, 15, and 30 min
Method: An appropriate amount of powders of crystalline form A of the free base, crystalline form I of the tartrate salt and crystalline form III of the tartrate salt were weighed and evenly spread in an agate mortar. Agate beads were added. To simulate the grinding conditions in a formulation process, the vibration frequency of the automatic ball mill was set at 25S-1, and the grinding was carried out for 5, 10, 15, and 30 min, respectively. Then samples were taken for XRPD to investigate the stability of the crystalline form under grinding conditions. For details of patterns, see FIGS. 27-29.

[6] = Suspension competitive crystal transformation test of crystalline forms I and III of the tartrate salt (XRPD); details: for Crystalline form after suspension competition: 24 h
Method: Crystalline form I and crystalline form III (each 20 mg) were weighed and added into a 2 mL or 10 mL glass bottle, and 0.5 mL or 1 mL of organic solvent was added, respectively, according to the solubility. Two batches were prepared with the same solvent, and placed respectively at room temperature and 50° C. for suspension competition for 24 h. The suspension was centrifuged (10000 rpm, 3 min). The obtained solid powder was then vacuum-dried and tested for XRPD (See FIGS. 30 and 31 for details).

[7] = Accelerated stability test: influence factor test and accelerated test, solid XRPD; details: for Stability of crystalline form, summary in words: high temperature, high humidity, strong light and accelerated test conditions
Method: According to the stability test requirements for the raw drug in the fourth part of the 2015 edition of the “Chinese Pharmacopoeia”, “Guiding Principles for the Stability Test of Raw Drugs and Preparations”, the influence factor test and the accelerated test were investigated on crystalline form.
High temperature test (T): The powder was placed in a suitable sealed glass bottle, and placed at 60° C. for 10 days. Samples were taken on the 5th and 10th day to detect the solid XRPD.
High humidity test (H): The powder was placed in an open constant temperature and humidity box, and placed at 25° C., 90%±5% RH for 10 days. Samples were taken on the 5th and 10th day and the solid XRPD was detected so as to investigate the moisture absorption and deliquescence performances.
Strong light irradiation test (L): The powder was placed in an open box equipped with a fluorescent lamp, and placed under the condition of an illumination of 4500±5001x for 10 days. Samples were taken on the 5th and 10th day to detect the solid XRPD.
Accelerated test (A): The powder was placed in an open constant temperature and humidity box, and placed at 40° C., 75%±5% RH for 10 days. Samples were taken on the 5th and 10th day to detect the solid XRPD.

[8] = Deionized water, 25° C., 24 hours
[9] = pH 2.0 glycine-hydrochloric acid buffer solution, 25° C., 24 hours
[10] = pH 4.5 Na2HPO4-citric acid buffer solution, 25° C., 24 hours
[11] = pH 6.8 Na2HPO4-citric acid buffer solution, 25° C., 24 hours
[12] = pH 6.8 buffered saline solution
[13] = solid after solubility test in deionized water
[14] = Accelerated (40° C./75%), 5 days
[15] = Accelerated (40° C./75%), 10 days
[16] = High humidity (92.5% RH), 25° C., 5 days
[17] = High humidity (92.5% RH), 25° C., 10 days
[18] = High temperature (60° C.), 5 days
[19] = High temperature (60° C.), 10 days
[20] = Strong light (4500 lx), 10 days

Which Solubility [1, 8] does the source give for `COc1cc(C(=O)NC2CCN(C)CC2)c(F)cc1Nc1ncc(C(F)(F)F)c(Oc2cccc3c2C(=O)N(C)C3)n1` [Crystalline form I of the tartrate salt] here?
The Solubility was 2590 µg/mL.

What about the “Solubility compared with the amorphous form of the free base” value ([1]; deionized water) of the same compound?
The value was “significantly improved”.

What about the Solubility [1, 9] of the same compound?
The Solubility was >10000 µg/mL.

What about the Solubility [1, 10] of the same compound?
Its Solubility is 5200 µg/mL.

What about the Solubility [1, 11] of the same compound?
Its Solubility is >10000 µg/mL.

And the “Solubility compared with the amorphous form of the free base” value [1, 12]?
Its value is “significantly improved”.

And the Moisture absorption ([2]; from 90% to 95% RH)?
The Moisture absorption was 0.08%.

And the Moisture absorption ([2]; humidity range of 40-80% RH)?
Its Moisture absorption is 0.33%.

What about the “Weight gain (DVS)” value ([2]; increase in relative humidity from about 0 to about 95%) of the same compound?
The value was “about 1%”.

What about the “Crystal transformation as detected by XRPD” value (shortened to “Crystal transformation”) [3, 13] of the same compound?
Its value is “no crystal transformation”.

What about the “Stability of the crystalline form under pressure conditions (XRPD)” value [4] of the same compound?
Its value is “stable”.

And the “Stability of the crystalline form under grinding conditions (XRPD)” value [5]?
The value was “only reduced in the degree of crystallinity”.

And the “Relative stability of the crystalline form in suspension competition” value ([6]; conventional solvents except methyl tert-butyl ether and cyclohexane, room temperature and 50° C.)?
The value was “stable crystalline form”.

And the “Stability of crystalline form (XRPD)” value [7, 14]?
Its value is “Consistent”.

What about the “Stability of crystalline form (XRPD)” value [7, 15] of the same compound?
Its value is “Consistent”.

What about the “Stability of crystalline form (XRPD)” value [7, 16] of the same compound?
Its value is “Consistent”.

What about the “Stability of crystalline form (XRPD)” value [7, 17] of the same compound?
The value was “Consistent”.

And the “Stability of crystalline form (XRPD)” value [7, 18]?
Its value is “Consistent”.

What about the “Stability of crystalline form (XRPD)” value [7, 19] of the same compound?
Its value is “Consistent”.

What about the “Stability of crystalline form (XRPD)” value ([7]; Strong light (4500 lx), 5 days) of the same compound?
The value was “Consistent”.

What about the “Stability of crystalline form (XRPD)” value [7, 20] of the same compound?
The value was “Consistent”.

What about the “Stability of crystalline form, summary in words” value [7] of the same compound?
The value was “stable under above test conditions without crystal transformation”.

Which results are given for `COc1cc(C(=O)NC2CCN(C)CC2)c(F)cc1Nc1ncc(C(F)(F)F)c(Oc2cccc3c2C(=O)N(C)C3)n1` [Crystalline form III of the tartrate salt]?
Solubility [1, 8]: >10000 µg/mL; Solubility ([1]; all the solvent systems): very good solubility; Solubility [1, 9]: >10000 µg/mL; Solubility [1, 10]: >10000 µg/mL; Solubility [1, 11]: >10000 µg/mL; Moisture absorption ([2]; from 90% to 95% RH): 18.1%; Moisture absorption ([2]; humidity range of 40-80% RH): 0.37%; Stability of the crystalline form under pressure conditions (XRPD) [4]: stable; Stability of the crystalline form under grinding conditions (XRPD) [5]: become amorphous; Stability of crystalline form (XRPD) [7, 14]: Consistent; Stability of crystalline form (XRPD) [7, 15]: Consistent; Stability of crystalline form (XRPD) [7, 16]: Consistent; Stability of crystalline form (XRPD) [7, 17]: Consistent,; Stability of crystalline form (XRPD) [7, 18]: Consistent; Stability of crystalline form (XRPD) [7, 19]: Consistent; Stability of crystalline form (XRPD) ([7]; Strong light (4500 lx), 5 days): Consistent; Stability of crystalline form (XRPD) [7, 20]: Consistent; Stability of crystalline form, summary in words [7]: stable under above test conditions without crystal transformation; Crystallinity ([7]; high-humidity environment): reduced

For `COc1cc(C(=O)NC2CCN(C)CC2)c(F)cc1Nc1ncc(C(F)(F)F)c(Oc2cccc3c2C(=O)N(C)C3)n1`, which “Crystalline form after suspension competition” value ([6]; Cyclohexane, 50° C.) is on record?
The value was “Mixture”.

What about the “Crystalline form after suspension competition” value ([6]; Cyclohexane, room temperature) of the same compound?
The value was “Mixture”.

What about the “Crystalline form after suspension competition” value ([6]; Methyl tert-butyl ether, 50° C.) of the same compound?
Its value is “Mixture”.

And the “Crystalline form after suspension competition” value ([6]; Methyl tert-butyl ether, room temperature)?
The value was “Mixture”.

Which Solubility [1, 8] does the source give for `COc1cc(C(=O)NC2CCN(C)CC2)c(F)cc1Nc1ncc(C(F)(F)F)c(Oc2cccc3c2C(=O)N(C)C3)n1` [Crystalline form A of the free base] here?
Its Solubility is 33 µg/mL (≈ 0.0561 mM).

What about the Solubility [1, 9] of the same compound?
The Solubility was >10000 µg/mL.

And the Solubility [1, 10]?
The Solubility was >10000 µg/mL.

What about the Solubility [1, 11] of the same compound?
The Solubility was 1060 µg/mL (≈ 1.8 mM).

What about the “Solubility compared with the amorphous form of the free base” value [1, 12] of the same compound?
The value was “significantly improved”.

What about the “Crystal transformation” value [3, 13] of the same compound?
Its value is “no crystal transformation”.

What about the “Crystal transformation” value ([3]; solid after solubility test in pH 6.8 buffered saline solution) of the same compound?
The value was “no crystal transformation”.

And the “Stability of the crystalline form under pressure conditions (XRPD)” value [4]?
Its value is “stable”.

What about the “Stability of the crystalline form under grinding conditions (XRPD)” value [5] of the same compound?
Its value is “become amorphous”.

And the “Stability of crystalline form (XRPD)” value [7, 14]?
The value was “Consistent”.

And the “Stability of crystalline form (XRPD)” value [7, 15]?
Its value is “Consistent”.

What about the “Stability of crystalline form (XRPD)” value [7, 16] of the same compound?
The value was “Consistent”.

And the “Stability of crystalline form (XRPD)” value [7, 17]?
The value was “Consistent”.

And the “Stability of crystalline form (XRPD)” value [7, 18]?
Its value is “Consistent”.

And the “Stability of crystalline form (XRPD)” value [7, 19]?
Its value is “Consistent”.

And the “Stability of crystalline form (XRPD)” value ([7]; Strong light (4500 lx), 5 days)?
Its value is “Consistent”.

What about the “Stability of crystalline form (XRPD)” value [7, 20] of the same compound?
The value was “Consistent”.

What about the “Stability of crystalline form, summary in words” value [7] of the same compound?
Its value is “stable under above test conditions without crystal transformation”.

Which results are given for `COc1cc(C(=O)NC2CCN(C)CC2)c(F)cc1Nc1ncc(C(F)(F)F)c(Oc2cccc3c2C(=O)N(C)C3)n1` [Amorphous form of the free base]?
Solubility [1, 8]: 1070 µg/mL (≈ 1.82 mM); solubility at 24 h ([1]; Na2HPO4-citric acid buffer, pH 4.5, aqueous buffer, pH 4.5 Na2HPO4-citric acid buffer solution, 24 hours): 8500 µg/mL (≈ 14.4 mM); solubility at 24 h ([1]; glycine-hydrochloric acid buffer, pH 2, aqueous buffer, pH 2.0 glycine-hydrochloric acid buffer solution, 24 hours): > 10000 µg/mL; Solubility [1, 11]: 50 µg/mL (≈ 0.085 mM)
